Experimental data published in article PMC5513865 (British Journal of Pharmacology, 2017).
Where “and” joins values, the source holds several entries; their conditions need not be identical. Equal entries are not always repeated. Structures can show the parent of a compound that is named as a salt.

How the values were obtained:
C57BL/6J wild-type mice [1] = conditions: mouse, in vivo
[2] = test system: μ receptor gene-disrupted 'knockout' (μ-KO) mice; conditions: mouse, in vivo
C57BL/6J wild-type mice [3] = assay: Rotorod assay to determine locomotor activity; format: in vivo, mouse; conditions: i.c.v., HS665 10 nmol, HS666 30 nmol (ED90); 10-60 min
human NOP receptor = molecular target: T1, human NOP receptor (Homo sapiens, UniProt P41146); assay: [3H]-N/OFQ NOP receptor binding assay, CHO-hNOP membranes; conditions: up to a concentration of 10 μM
T1 construct: expressed in transfected cells
T1 sequence (P41146 whole entry): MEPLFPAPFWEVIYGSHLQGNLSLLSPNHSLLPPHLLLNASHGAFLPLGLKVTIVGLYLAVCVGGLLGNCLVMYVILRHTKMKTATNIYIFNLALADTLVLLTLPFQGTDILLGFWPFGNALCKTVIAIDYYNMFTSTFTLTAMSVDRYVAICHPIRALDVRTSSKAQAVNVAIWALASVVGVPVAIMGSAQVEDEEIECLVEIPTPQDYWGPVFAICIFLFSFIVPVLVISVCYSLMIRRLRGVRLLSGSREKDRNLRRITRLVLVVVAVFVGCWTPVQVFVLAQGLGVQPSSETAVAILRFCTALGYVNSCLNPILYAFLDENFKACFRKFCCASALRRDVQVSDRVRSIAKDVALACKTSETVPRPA

human μ receptor = molecular target: T2, human μ receptor (Homo sapiens, UniProt P35372); assay: [35S]-GTPγS binding assay, CHO-hμ membranes; format: biochemical; conditions: at concentrations up to 10 μM
T2 construct: expressed in transfected cells
T2 sequence (P35372 whole entry): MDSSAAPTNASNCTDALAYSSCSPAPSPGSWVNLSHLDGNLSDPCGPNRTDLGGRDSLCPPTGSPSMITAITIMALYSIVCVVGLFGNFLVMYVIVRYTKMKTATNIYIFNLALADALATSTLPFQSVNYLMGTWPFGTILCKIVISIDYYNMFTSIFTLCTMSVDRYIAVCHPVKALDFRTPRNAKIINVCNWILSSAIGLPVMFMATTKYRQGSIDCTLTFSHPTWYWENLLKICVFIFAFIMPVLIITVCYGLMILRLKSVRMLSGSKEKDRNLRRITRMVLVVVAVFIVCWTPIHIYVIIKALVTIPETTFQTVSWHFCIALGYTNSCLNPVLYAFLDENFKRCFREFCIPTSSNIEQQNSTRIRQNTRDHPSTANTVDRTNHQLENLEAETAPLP

human κ receptor [4] = test system: human κ receptor
C57BL/6J wild-type mice [5] = conditions: mouse, in vivo; remark: listed apart in the source
mice = test system: mice; design: method as in Spetea et al., 2012; conditions: s.c., ref Spetea et al., 2012; cited from earlier work
[6] = test system: κ receptor gene-disrupted 'knockout' (κ-KO) mice; conditions: mouse, in vivo
human κ receptor [7] = molecular target: human κ receptor; design: method as in Spetea et al., 2012; conditions: ref Spetea et al., 2012, read-out: binding affinity (Ki) for the κ receptor; cited from earlier work
μ receptor = molecular target: μ receptor; design: method as in Spetea et al., 2012; conditions: ref Spetea et al., 2012; read-out: binding affinity (Ki) for the μ receptor; cited from earlier work
δ receptor = molecular target: δ receptor; design: method as in Spetea et al., 2012; conditions: ref Spetea et al., 2012; read-out: binding affinity for the δ receptor; cited from earlier work
human κ receptor [8] = molecular target: T3, human κ receptor (Homo sapiens, UniProt P41145); assay: biochemical; format: biochemical; design: expressed in transfected cells
T3 sequence (P41145 whole entry): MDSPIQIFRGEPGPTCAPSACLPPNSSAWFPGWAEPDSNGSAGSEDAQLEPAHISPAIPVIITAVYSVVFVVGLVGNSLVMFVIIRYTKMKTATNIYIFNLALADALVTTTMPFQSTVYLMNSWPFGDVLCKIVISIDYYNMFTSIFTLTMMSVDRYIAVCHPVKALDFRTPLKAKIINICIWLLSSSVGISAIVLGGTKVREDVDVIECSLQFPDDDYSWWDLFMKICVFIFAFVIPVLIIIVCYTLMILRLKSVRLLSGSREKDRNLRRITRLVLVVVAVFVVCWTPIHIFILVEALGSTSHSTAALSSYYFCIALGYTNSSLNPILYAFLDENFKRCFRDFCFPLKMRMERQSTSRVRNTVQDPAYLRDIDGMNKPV

human κ receptor [9] = molecular target: T3, human κ receptor; assay: cell-based; format: cell-based; design: host or cells: U2OS (U2OS–hκ receptor–β‐arrestin2 cells), PathHunter eXpress
C57BL/6J wild-type mice [10] = test system: C57BL/6J wild-type mice; design: method as in Aldrich et al., 2014; conditions: i.c.v.; ref Aldrich et al., 2014; cited from earlier work

## Oc1cccc(CCN(CCc2ccccc2)CC2CCC2)c1 [HS665]
C57BL/6J wild-type mice [1]
  % antinociception: 1.97 ± 1.18%
  antinociceptive ED50 and 95% C.I.: 3.99 (3.14 – 5.33) nmol and 4.74 (3.72 – 6.41) nmol and 3.74 (2.98–4.78) nmol and 3.74 nmol
[2]
  antinociceptive activity in μ-KO mice compared with wild-type: not statistically altered
C57BL/6J wild-type mice [3]
  effect on motor performance (latency to fall): did not significantly impact motor performance
Human NOP receptor
  affinity for the NOP receptor: no significant affinity
Human μ receptor
  G protein activation (agonist activity) at the μ receptor: no agonist activity
Human κ receptor [4]
  bias factor (G protein over β-arrestin2): 389
C57BL/6J wild-type mice [5]
  conditioned place preference or aversion: significant place aversion
mice
  κ receptor-mediated antinociceptive effects in the writhing test: comparable with U50,488

## Oc1cccc(CCN(CCc2ccccc2)CC2CC2)c1 [HS666]
C57BL/6J wild-type mice [1]
  % antinociception: 1.00 ± 0.48%
[2]
  antinociceptive activity in μ-KO mice compared with wild-type: not statistically altered
C57BL/6J wild-type mice [3]
  effect on motor performance (latency to fall): did not significantly impact motor performance
Human NOP receptor
  affinity for the NOP receptor: no significant affinity
Human μ receptor
  G protein activation (agonist activity) at the μ receptor: no agonist activity
Human κ receptor [4]
  bias factor (G protein over β-arrestin2): 62
  fold decrease in potency, [35S]-GTPγS assay versus PathHunter assay: 13 fold
  ΔΔlog(τ/KA) G protein - β-arrestin2: 1.79
[6]
  antinociceptive activity in κ-KO mice compared with wild-type: no antinociceptive activity
C57BL/6J wild-type mice [5]
  conditioned place preference or aversion: neither significant preference nor aversion
Human κ receptor [7]
  Ki: 5.9 nM
μ receptor
  Ki: 826 nM
δ receptor
  Ki: > 10000 nM
Human κ receptor [8]
  EC50: 35.7 ± 6 nM
  agonist-stimulated [35S]-GTPγS binding in the presence of nor-BNI: significantly antagonized
  inhibition of U69,593-stimulated [35S]-GTPγS coupling: partially blocks
  log(τ/KA) G protein: 5.73 ± 0.29
Human κ receptor [8]; read-out: G protein coupling Emax
  Emax: 50 ± 4%
Human κ receptor [9]
  EC50: 449 ± 56 nM
  log(τ/KA) β-arrestin2: 3.52 ± 0.02
Human κ receptor [9]; read-out: β-arrestin2 recruitment Emax
  Emax: 24 ± 1%

## CN1CC[C@]23c4c5ccc(O)c4O[C@H]2[C@@H](O)C=C[C@H]3[C@H]1C5 [morphine, morphine sulfate, reference compound]
C57BL/6J wild-type mice [5]
  conditioned place preference or aversion: significant CPP
C57BL/6J wild-type mice [10]
  antinociceptive ED50: 2.35 nmol

## Oc1ccc2c3c1O[C@H]1c4[nH]c5c(c4C[C@@]4(O)[C@@H](C2)N(CC2CC2)CC[C@]314)C[C@@]1(O)[C@H]2Cc3ccc(O)c4c3[C@@]1(CCN2CC1CC1)[C@H]5O4 [nor-BNI, nor‐binaltorphimine, reference compound]
Human κ receptor [8]
  inhibition of U69,593-stimulated [35S]-GTPγS coupling: completely blocks coupling
